From patent US10363239B2, “Method for inhibiting growth of cancer cells” (Pain Therapeutics, Inc., priority 2013, dated 2019)
Read-outs that look alike come from different tables or passages of the source.

How the values were obtained:
mu opiate receptor (MOR) = test: MOR agonist activity using [35S]GTPγS binding assay in striatal membranes; format: biochemical; details: for MOR agonist activity ([35S]GTPγS binding), FLNA-Binding Compound as Agonist 1 μM + BFNA: 1 μM compound + 1 μM β-funaltrexamine
How it was run: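 Striatal membranes (200 μg) were preincubated 5 min at 30 °C in HEPES pH 7.5 with 100 mM NaCl, 1 mM MgCl2 and 0.5 nM [35S]GTPγS, then 5 min more with 0.1–10 μM compound. Gαo was immunoprecipitated and bound radioactivity counted by scintillation.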

[1] = target: FLNA pentapeptide of SEQ ID NO: 1 (Bn-VAKGL) (Homo sapiens, UniProt P21333); test: FITC-NLX-based FLNA screening assay (inhibition of FITC-naloxone binding to Bn-VAKGL on streptavidin plates); details: 10 nM FITC-NLX
[2] = Series C-1, 0.1 μM compound, relative to DAMGO
[3] = Series C-1, 0.1 μM compound, [35S]GTPγS binding to Gαo, striatal membranes
[4] = Series C-1, 1 μM compound + 1 μM β-FNA
[5] = Series C-1, 1 μM compound + β-FNA, relative to DAMGO + BFNA
[6] = Series C-1, 1 μM compound, relative to DAMGO
[7] = Series C-1, 1 μM compound, [35S]GTPγS binding to Gαo, striatal membranes
[8] = read-out: Percent Binding Inhibition, FLNA-binding compound 0.01 μM
[9] = read-out: Percent Binding Inhibition, FLNA-binding compound 0.1 μM
[10] = read-out: Percent Binding Inhibition, FLNA-binding compound 1 μM
[11] = 0.1 μM compound relative to DAMGO
[12] = 1 μM compound + BFNA relative to DAMGO + BFNA
[13] = 1 μM compound relative to DAMGO
[14] = FLNA-binding compound 0.01 μM, read-out: Percent Binding Inhibition
[15] = FLNA-binding compound 0.1 μM, read-out: Percent Binding Inhibition
[16] = FLNA-binding compound 1 μM, read-out: Percent Binding Inhibition

Row | SMILES | % DAMGO (0.1 μM) (mu opiate receptor (MOR); [2]) [%] | Concentration of FLNA-Binding Compound as Agonist 0.1 μM (mu opiate receptor (MOR); [3]) [%] | Concentration of FLNA-Binding Compound as Agonist 1 μM + BFNA (mu opiate receptor (MOR); [4]) [%] | % DAMGO + BFNA (mu opiate receptor (MOR); [5]) [%] | % DAMGO (1 μM) (mu opiate receptor (MOR); [6]) [%] | Concentration of FLNA-Binding Compound as Agonist 1 μM (mu opiate receptor (MOR); [7]) [%] | inhibition at 0.01 µM [1, 8] [%] | inhibition at 0.1 µM [1, 9] [%] | inhibition at 1 µM [1, 10] [%] | MOR agonist activity ([35S]GTPγS binding), FLNA-Binding Compound as Agonist 0.1 μM (mu opiate receptor (MOR); 0.1 μM compound) [%] | % DAMGO (0.1 μM) (mu opiate receptor (MOR); [11]) [%] | MOR agonist activity ([35S]GTPγS binding), FLNA-Binding Compound as Agonist 1 μM (mu opiate receptor (MOR); 1 μM compound) [%] | MOR agonist activity ([35S]GTPγS binding), FLNA-Binding Compound as Agonist 1 μM + BFNA (mu opiate receptor (MOR)) [%] | % DAMGO + BFNA (mu opiate receptor (MOR); [12]) [%] | % DAMGO (1 μM) (mu opiate receptor (MOR); [13]) [%] | inhibition at 0.01 µM [1, 14] [%] | inhibition at 0.1 µM [1, 15] [%] | inhibition at 1 µM [1, 16] [%] | also measured
1 | N#Cc1ccccc1S(=O)(=O)N1CCC2(CC1)OCCN2S(=O)(=O)c1ccccc1C#N [Compound C0004] | 72.1 | 122.0 | 65.8 | 99.7 | 85.4 | 228.4 | 37.6 | 42.3 | 44.7 | – | – | – | – | – | – | – | – | – | –
2 | CC1CN(CC(O)COc2ccccc2Br)CC(C)O1 (stereo not drawn) [Compound A0043] | – | – | – | – | – | – | – | – | – | 183.3 | 93.4 | 223.8 | 89.1 | 120.6 | 81.1 | 46.4 | 48.9 | 51.8 | –
3 | CC1CCC(C(C)C)C(OCC(O)CN2CC(C)OC(C)C2)C1 (stereo not drawn) [Compound A0032-1] | – | – | – | – | – | – | – | – | – | 187.4 | 95.5 | 324.5 | 224.5 | 303.8 | 117.6 | 35.6 | 43.9 | 50 | –
4 | COc1ccc(OCC(O)Cn2ccc3ccccc32)cc1 (stereo not drawn) [Compound A0077] | – | – | – | – | – | – | – | – | – | 300.1 | 170.5 | 334.7 | 103.5 | 470.5 | 132.3 | 41.1 | 48.7 | 49.4 | –
5 | COc1ccc(NC(=O)N2CCC3(CC2)OCCN3C(=O)Nc2ccc(OC)cc2)cc1 [Compound C0151M] | 201.6 | 346.8 | 212.8 | 233.1 | 122.0 | 397.6 | 48.3 | 51.7 | 58.7 | – | – | – | – | – | – | – | – | – | –
6 | CC(C)c1ccc(S(=O)(=O)N2CCC3(CC2)OCCN3S(=O)(=O)c2ccc(C(C)C)cc2)cc1 [Compound C0007] | 46.0 | 79.1 | 10.9 | 17.0 | 70.5 | 195.0 | 40.5 | 46.3 | 48.9 | – | – | – | – | – | – | – | – | – | –
7 | COc1ccc(C(=O)CC2c3c(cc4c(c3OC)OCO4)CC[N+]2(C)C)cc1 (stereo not drawn) [Compound B0024] | – | – | – | – | – | – | 34.8 | 43.4 | 47.7 | – | – | – | – | – | – | – | – | – | % DAMGO (0.1 μM) (mu opiate receptor (MOR); Series B, 0.1 μM compound, relative to DAMGO): 93.2%; MOR agonist activity, percent [35S]GTPγS binding at the stated compound concentration (mu opiate receptor (MOR); Series B, 0.1 μM compound, [35S]GTPγS binding to Gαo, striatal membranes): 155.8%; MOR agonist activity, percent [35S]GTPγS binding at the stated compound concentration (mu opiate receptor (MOR); Series B, 1 μM compound + 1 μM β-FNA): 20.2%; % DAMGO + BFNA (mu opiate receptor (MOR); Series B, 1 μM compound + β-FNA, relative to DAMGO + BFNA): 58.2%; % DAMGO (1 μM) (mu opiate receptor (MOR); Series B, 1 μM compound, relative to DAMGO): 116.7%; MOR agonist activity, percent [35S]GTPγS binding at the stated compound concentration (mu opiate receptor (MOR); Series B, 1 μM compound, [35S]GTPγS binding to Gαo, striatal membranes): 285.9%
8 | CC(=O)c1ccc(S(=O)(=O)N2CCC3(CC2)OCCN3S(=O)(=O)c2ccc(C(C)=O)cc2)cc1 [Compound C0011] | 126.8 | 217.0 | 19.0 | 36.5 | 114.3 | 305.0 | 37.6 | 41.4 | 46 | – | – | – | – | – | – | – | – | – | % DAMGO (0.1 μM) (mu opiate receptor (MOR); Series C-2, 0.1 μM compound, relative to DAMGO): 126.8%; MOR agonist activity, percent [35S]GTPγS binding at the stated compound concentration (mu opiate receptor (MOR); Series C-2, 0.1 μM compound, [35S]GTPγS binding to Gαo, striatal membranes): 217.0%; MOR agonist activity, percent [35S]GTPγS binding at the stated compound concentration (mu opiate receptor (MOR); Series C-2, 1 μM compound + 1 μM β-FNA): 19.0%; % DAMGO + BFNA (mu opiate receptor (MOR); Series C-2, 1 μM compound + β-FNA, relative to DAMGO + BFNA): 36.5%; % DAMGO (1 μM) (mu opiate receptor (MOR); Series C-2, 1 μM compound, relative to DAMGO): 114.3%; MOR agonist activity, percent [35S]GTPγS binding at the stated compound concentration (mu opiate receptor (MOR); Series C-2, 1 μM compound, [35S]GTPγS binding to Gαo, striatal membranes): 305.0%
